These results are taken from ChEMBL document CHEMBL1201862, “PubChem BioAssay data set” (2004).

SMILES strings stand for the structures. Calls of active or inactive are those of the source. Where only a bound is given, the exact number is not on record here.

The target in assay [1] is T1, Neuropeptides B/W receptor type 1 (Homo sapiens, UniProt P48145).
T1 sequence (P48145 whole entry): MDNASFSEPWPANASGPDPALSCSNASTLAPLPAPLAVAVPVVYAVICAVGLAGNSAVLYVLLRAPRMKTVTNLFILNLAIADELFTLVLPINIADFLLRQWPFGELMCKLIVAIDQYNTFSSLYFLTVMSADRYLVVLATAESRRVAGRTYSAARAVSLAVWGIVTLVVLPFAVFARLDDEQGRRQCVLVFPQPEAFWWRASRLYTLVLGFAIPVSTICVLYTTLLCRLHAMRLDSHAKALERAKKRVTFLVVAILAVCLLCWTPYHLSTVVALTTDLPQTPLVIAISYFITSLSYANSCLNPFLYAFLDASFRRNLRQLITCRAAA
As to the kind of experiment: human NPBW1 receptor blockade, IC50 – cell-based, fluorescence, dose response, late-stage follow-up (AID 463251). It is filed as functional.

Assay [2] deals with Melanin-concentrating hormone receptor 1 (Homo sapiens, UniProt Q99705). As to the kind of experiment: Late-stage fluorescence-based counterscreen for antagonists of the G-protein coupled receptor 7 (GPR7): cell-based dose response assay to identify antagonists of the melanin-concentrating hormone receptor 1 (MCHR1). [Related pubchem assays (depositor defined):AID1861, AID1880, AID1952, AID2148, AID2251, AID2257, AID485339]. It is filed as functional. In general terms: The purpose of a counterscreen is to sort out artefacts and off-target activity.
Chain of Melanin-concentrating hormone receptor 1 (Q99705 whole entry): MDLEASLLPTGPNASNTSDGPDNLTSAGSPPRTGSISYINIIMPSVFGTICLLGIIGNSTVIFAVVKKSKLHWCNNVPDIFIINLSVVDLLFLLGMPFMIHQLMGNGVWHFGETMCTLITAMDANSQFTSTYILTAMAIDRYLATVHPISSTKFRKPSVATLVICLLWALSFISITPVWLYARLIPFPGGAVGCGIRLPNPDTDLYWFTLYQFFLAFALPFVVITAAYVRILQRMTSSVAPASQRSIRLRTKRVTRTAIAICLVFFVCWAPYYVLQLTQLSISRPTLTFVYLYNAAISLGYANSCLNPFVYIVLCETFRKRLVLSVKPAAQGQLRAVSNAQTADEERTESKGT

The target of assay [3] is Phosphoethanolamine/phosphocholine phosphatase (Homo sapiens, UniProt Q8TCT1). As to the kind of experiment: SAR assay for compounds that inhibit PHOSPHO1. [Related pubchem assays (depositor defined):AID1545, AID1565, AID1574].
Chain of Phosphoethanolamine/phosphocholine phosphatase (Q8TCT1 whole entry): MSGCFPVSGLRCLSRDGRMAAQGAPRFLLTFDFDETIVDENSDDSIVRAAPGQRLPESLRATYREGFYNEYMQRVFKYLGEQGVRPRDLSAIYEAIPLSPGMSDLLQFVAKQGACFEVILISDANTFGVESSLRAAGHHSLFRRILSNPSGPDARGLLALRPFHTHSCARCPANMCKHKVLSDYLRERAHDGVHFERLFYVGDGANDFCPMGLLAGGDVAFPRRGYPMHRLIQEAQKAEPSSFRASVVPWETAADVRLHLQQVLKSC
Assay [4] has as its target T2, Histone-lysine N-methyltransferase NSD2 (Homo sapiens, UniProt O96028).
T2 sequence (O96028 whole entry): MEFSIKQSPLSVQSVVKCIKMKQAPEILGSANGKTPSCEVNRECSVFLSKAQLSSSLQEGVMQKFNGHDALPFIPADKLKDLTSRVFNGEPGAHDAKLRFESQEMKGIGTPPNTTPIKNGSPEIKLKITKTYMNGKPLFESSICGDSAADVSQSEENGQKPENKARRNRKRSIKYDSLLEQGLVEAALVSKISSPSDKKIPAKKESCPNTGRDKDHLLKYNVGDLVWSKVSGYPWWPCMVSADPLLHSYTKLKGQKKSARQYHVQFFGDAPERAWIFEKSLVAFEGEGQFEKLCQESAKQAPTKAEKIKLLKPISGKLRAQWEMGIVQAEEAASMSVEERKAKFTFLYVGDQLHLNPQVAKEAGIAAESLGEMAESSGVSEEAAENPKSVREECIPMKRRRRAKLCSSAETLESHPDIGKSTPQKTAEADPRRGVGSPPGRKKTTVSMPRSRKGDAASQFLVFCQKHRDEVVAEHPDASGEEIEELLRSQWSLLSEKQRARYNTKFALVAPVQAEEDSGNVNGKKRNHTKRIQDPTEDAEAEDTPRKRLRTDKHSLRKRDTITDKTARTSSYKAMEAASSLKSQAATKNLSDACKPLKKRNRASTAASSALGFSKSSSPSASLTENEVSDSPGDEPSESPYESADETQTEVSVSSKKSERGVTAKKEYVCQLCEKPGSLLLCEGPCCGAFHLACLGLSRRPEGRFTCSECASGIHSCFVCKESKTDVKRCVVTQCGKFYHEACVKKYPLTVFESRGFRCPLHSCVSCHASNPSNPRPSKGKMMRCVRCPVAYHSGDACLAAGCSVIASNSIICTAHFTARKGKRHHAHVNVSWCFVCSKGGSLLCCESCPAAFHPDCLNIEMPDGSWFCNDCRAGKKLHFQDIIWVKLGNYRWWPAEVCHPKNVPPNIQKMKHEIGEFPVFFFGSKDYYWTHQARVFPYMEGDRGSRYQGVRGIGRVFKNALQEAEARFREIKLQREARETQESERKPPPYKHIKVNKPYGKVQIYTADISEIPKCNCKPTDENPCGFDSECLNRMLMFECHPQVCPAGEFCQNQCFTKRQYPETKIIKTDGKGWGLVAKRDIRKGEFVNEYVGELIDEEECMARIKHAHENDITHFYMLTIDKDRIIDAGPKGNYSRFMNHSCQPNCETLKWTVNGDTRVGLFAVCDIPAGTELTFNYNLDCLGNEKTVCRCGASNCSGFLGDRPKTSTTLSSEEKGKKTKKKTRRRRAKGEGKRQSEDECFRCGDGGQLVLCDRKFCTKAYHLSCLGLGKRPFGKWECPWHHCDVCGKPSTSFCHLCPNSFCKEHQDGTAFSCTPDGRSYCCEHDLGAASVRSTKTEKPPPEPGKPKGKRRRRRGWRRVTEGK
It is filed as biochemical.

Assay [5] concerns the target T3, RNA-binding protein pos-1 (Caenorhabditis elegans, UniProt G5EF15).
T3 sequence (G5EF15 whole entry): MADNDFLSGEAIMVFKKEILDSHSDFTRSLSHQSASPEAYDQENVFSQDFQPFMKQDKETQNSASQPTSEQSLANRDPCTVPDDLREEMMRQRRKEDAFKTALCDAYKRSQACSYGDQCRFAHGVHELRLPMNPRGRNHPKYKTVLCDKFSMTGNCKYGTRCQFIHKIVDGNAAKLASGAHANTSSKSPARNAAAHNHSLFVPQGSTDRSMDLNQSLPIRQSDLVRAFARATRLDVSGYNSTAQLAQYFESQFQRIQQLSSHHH
The experiment in a line: disruptors of C. elegans POS-1 RNA interaction – biochemical, fluorescence polarization, dose response (AID 1964).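 Further: purified POS-1 fused to maltose binding protein made in E. coli; potency of compounds blocking POS-1 binding to fluorescent RNA.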 Background: In fluorescence polarisation assays a small probe gives low polarisation when free and higher when bound to something large.

Assay [6] has as its target Estrogen receptor beta (Homo sapiens, UniProt Q92731). As to the kind of experiment: blockers of SRC-3 recruitment to ERβ – biochemical, ELISA, streptavidin-HRP readout, orthogonal assay, confirmation (AID 1060). For orientation: An ELISA detects its analyte on a solid surface through an enzyme-linked reagent.
For assay [7], the target named is T4, Zinc finger protein mex-5 (Caenorhabditis elegans, UniProt Q9XUB2).
T4 sequence (Q9XUB2 whole entry): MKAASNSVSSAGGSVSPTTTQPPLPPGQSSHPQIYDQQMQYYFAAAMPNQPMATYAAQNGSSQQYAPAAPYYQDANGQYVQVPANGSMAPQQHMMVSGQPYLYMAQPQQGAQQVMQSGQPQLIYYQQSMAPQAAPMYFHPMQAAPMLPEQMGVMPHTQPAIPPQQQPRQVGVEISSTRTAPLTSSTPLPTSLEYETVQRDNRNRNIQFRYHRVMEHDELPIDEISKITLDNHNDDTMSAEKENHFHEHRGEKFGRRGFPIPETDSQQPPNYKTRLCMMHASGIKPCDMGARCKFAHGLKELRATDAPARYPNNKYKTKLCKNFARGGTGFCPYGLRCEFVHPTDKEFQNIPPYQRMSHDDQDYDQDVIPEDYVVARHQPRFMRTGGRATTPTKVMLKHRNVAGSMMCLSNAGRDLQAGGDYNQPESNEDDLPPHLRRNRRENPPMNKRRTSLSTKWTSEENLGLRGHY
As to the kind of experiment: potency of MEX-5 RNA-binding blockers – biochemical, C. elegans, fluorescence polarization, dose response (AID 1960).

The target of assay [8] is T5, Estrogen receptor (Homo sapiens, UniProt P03372).
T5 sequence (P03372 whole entry): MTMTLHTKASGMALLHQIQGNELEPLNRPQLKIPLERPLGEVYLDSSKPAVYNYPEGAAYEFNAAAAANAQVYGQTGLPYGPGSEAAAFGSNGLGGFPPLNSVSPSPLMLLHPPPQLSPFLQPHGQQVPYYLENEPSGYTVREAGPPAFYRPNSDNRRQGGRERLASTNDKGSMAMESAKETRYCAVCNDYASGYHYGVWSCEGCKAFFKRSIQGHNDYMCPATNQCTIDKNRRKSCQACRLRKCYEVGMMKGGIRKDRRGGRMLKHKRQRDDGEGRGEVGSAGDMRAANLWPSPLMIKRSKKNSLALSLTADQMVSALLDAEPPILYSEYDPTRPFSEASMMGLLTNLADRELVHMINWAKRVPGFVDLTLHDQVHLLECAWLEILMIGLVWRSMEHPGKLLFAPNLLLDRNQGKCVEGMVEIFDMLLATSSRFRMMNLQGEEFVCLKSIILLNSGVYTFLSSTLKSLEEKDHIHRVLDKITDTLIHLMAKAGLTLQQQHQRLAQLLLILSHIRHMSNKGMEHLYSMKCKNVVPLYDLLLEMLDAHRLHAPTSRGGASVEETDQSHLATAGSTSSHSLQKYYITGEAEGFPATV

Assay [9] can be described thus: Cytotoxicity screening for potential Inhibitors of Bacterial Capsule Biogenesis. [Related pubchem assays (depositor defined):AID488970]. It is filed as functional.
For assay [10], the target named is Prothrombin (Bos taurus, UniProt P00735). The experiment in a line: thrombin protease inhibitors – biochemical, fluorescence polarization, uHTS hits, dose response (AID 602369). It is filed as functional.
The target of assay [11] is 72 kDa type IV collagenase (Homo sapiens, UniProt P08253). The experiment in a line: Dose Response validation of uHTS RPN11 inhibitor hits using a MMP-2 Fluorescence assay. It is filed as functional.
Chain of 72 kDa type IV collagenase (P08253 whole entry): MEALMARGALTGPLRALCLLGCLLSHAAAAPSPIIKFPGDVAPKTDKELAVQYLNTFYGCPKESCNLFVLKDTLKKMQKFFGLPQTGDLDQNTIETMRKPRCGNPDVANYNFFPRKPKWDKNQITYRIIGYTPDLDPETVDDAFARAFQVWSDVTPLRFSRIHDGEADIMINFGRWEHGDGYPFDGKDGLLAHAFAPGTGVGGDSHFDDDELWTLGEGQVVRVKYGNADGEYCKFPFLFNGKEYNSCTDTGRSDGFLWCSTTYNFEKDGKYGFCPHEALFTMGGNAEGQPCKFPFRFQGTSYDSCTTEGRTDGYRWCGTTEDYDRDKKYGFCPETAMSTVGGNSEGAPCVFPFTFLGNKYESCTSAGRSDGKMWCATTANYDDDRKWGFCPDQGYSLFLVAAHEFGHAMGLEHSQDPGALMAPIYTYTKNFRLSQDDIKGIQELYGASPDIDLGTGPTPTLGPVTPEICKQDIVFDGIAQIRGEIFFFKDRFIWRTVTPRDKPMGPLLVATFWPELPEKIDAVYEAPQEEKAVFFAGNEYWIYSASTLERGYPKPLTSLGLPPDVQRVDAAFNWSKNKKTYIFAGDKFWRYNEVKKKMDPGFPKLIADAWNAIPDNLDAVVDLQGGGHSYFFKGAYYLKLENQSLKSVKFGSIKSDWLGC
The target in assay [12] is 26S proteasome non-ATPase regulatory subunit 14 (Homo sapiens, UniProt O00487). The experiment in a line: inhibition of proteasome subunit RPN11 – biochemical, fluorescence polarization, uHTS hits, confirmation (AID 602368). It is filed as functional.
Chain of 26S proteasome non-ATPase regulatory subunit 14 (O00487 whole entry): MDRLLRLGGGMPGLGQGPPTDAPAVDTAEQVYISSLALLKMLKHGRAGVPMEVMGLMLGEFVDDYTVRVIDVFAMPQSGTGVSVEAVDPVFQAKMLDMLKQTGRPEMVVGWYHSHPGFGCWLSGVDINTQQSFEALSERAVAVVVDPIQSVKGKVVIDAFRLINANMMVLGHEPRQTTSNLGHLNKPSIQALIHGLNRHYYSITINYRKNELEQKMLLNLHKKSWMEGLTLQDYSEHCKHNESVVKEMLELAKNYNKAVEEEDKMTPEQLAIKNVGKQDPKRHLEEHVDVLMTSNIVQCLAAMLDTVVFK
Assay [13] addresses G-protein coupled receptor 35 (Homo sapiens, UniProt Q9HC97). As to the kind of experiment: inhibition of zaprinast-stimulated GPR35 beta-arrestin translocation – imaging, U2OS, beta-arrestin-GFP, zaprinast agonist, primary screen (AID 2058).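 Further: antagonist potency meaning inhibition of agonist-induced arrestin redistribution.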 It is filed as functional.
The target in assay [14] is Bcl-2-like protein 10 (Homo sapiens, UniProt Q9HD36). The experiment in a line: Bcl-B/TR3 peptide binding disruption – biochemical, fluorescence polarization, FITC-TR3 peptide, selectivity assay for Bfl-1 inhibitor project, primary screen (AID 748).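 Further: fluorescence polarization from a fluorescein-labelled TR3 peptide binding purified Bcl-B.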
Chain of Bcl-2-like protein 10 (Q9HD36 whole entry): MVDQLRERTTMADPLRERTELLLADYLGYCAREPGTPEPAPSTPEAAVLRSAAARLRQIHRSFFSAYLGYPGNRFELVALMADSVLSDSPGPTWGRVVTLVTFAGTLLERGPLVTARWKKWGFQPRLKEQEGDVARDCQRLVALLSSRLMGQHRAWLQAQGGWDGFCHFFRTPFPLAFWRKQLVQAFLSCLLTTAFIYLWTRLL
The target of assay [15] is T6, Short transient receptor potential channel 4 (Mus musculus, UniProt Q9QUQ5).
T6 sequence (Q9QUQ5 whole entry): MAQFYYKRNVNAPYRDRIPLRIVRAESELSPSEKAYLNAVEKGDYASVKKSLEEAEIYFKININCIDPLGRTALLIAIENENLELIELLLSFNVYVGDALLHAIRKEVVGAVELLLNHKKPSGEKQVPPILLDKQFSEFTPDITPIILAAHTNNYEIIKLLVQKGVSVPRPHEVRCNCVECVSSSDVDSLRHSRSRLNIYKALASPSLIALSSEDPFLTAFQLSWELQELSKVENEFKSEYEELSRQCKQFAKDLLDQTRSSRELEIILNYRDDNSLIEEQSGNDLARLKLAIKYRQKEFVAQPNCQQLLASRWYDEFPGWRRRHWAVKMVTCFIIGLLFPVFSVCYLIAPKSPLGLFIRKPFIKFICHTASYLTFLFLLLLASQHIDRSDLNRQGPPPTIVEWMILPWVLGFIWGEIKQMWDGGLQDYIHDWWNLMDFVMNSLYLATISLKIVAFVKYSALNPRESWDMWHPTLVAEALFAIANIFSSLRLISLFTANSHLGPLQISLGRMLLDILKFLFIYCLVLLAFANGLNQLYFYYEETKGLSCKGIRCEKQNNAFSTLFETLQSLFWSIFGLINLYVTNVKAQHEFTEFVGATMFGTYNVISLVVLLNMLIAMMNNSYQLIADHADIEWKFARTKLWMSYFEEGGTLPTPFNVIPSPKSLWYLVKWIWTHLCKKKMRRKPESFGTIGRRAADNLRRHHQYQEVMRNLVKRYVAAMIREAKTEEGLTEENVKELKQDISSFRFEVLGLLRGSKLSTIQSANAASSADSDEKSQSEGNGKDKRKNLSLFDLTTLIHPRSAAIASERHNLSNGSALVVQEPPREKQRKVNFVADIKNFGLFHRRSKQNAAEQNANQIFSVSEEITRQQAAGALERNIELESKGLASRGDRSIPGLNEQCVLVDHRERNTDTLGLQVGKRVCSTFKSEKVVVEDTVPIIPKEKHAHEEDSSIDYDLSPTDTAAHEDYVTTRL
The experiment in a line: block of DAMGO-driven TRPC4 calcium entry – cell-based, HEK293 TRPC4/mu-opioid, Fluo-4 calcium, dose response (AID 434942).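 Further: potency of inhibitors blocking the TRPC4 calcium response.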 It is filed as functional.

Chain of G-protein coupled receptor 35 (Q9HC97 whole entry): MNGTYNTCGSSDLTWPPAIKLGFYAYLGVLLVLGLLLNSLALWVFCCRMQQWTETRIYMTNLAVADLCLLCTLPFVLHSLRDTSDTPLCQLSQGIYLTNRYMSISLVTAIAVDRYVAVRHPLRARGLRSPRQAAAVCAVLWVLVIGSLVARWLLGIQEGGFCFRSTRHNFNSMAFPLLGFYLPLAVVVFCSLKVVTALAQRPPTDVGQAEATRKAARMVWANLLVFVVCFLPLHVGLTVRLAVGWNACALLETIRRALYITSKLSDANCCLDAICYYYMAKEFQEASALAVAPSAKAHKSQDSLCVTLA
Chain of Estrogen receptor beta (Q92731 whole entry): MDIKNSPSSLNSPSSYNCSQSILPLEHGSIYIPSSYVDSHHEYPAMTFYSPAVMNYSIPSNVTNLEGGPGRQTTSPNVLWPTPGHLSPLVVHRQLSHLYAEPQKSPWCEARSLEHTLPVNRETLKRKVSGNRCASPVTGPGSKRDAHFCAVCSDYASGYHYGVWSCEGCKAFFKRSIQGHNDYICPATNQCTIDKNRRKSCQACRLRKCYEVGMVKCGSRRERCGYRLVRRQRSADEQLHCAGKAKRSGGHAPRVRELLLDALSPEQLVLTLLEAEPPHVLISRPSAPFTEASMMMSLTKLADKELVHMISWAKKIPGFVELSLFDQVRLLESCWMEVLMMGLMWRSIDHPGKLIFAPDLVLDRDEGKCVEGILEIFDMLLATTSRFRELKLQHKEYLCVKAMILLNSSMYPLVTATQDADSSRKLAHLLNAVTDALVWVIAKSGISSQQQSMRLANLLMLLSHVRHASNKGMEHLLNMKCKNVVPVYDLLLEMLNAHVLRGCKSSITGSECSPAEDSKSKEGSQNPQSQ

Regarding `O=c1c(Oc2ccc(O)cc2)c(Cl)cnn1-c1ccccc1`, the IC50 in [1] is 2.8 µM (active); in assay [2] it was 11.1 µM (inactive).
`c1ccc(CNc2nc(-c3ccccc3)[n+](-c3ccccc3)s2)cc1`: in assay [3], the IC50 was 2.59 µM (inactive).
Consider `CCC1=NN2C(=N)/C(=C\c3ccc(SCc4ccco4)o3)C(=O)N=C2S1`, for which, in assay [4], the AC50 is 16.2 µM (active). Besides, the EC50 in [5] was 4.36 µM (active); in assay [7] it was 6.85 µM (active). The IC50 in [6] was > 50 µM (not active); in assay [8] it was 21 µM (active). The CC50 in assay [9] is > 100 µM (active).
`O=C(/C=C/c1ccco1)Nc1cccc(C(=O)Nc2ccccc2C(=O)O)c1`: the IC50 in [10] is 39.8 µM (active); in [11], 97.4 µM (active); in [12] it was 23.1 µM (active); in [13] it was < 0.5 µM (active). For the same compound, in [4], the AC50 is 18.6 µM (active).
Take `COc1ccccc1NCCC(=O)OCC(=O)NCc1ccco1`: the IC50 in assay [14] was 69.1 µM (inactive).
For `CCOC(=O)C1(Cc2cccc(OC)c2)CCN(Cc2cccc(O)c2)CC1`, in [15], the EC50 was 9.44 µM (active).

Usually IC50 stands for the midpoint of a concentration-inhibition curve. By AC50 is commonly meant the concentration at which the activity in the assay is half-maximal. For orientation: EC50 means the midpoint of the concentration-response curve. A word on the CC50: it is the concentration at which the toxic effect on the cells reaches its halfway point.
